Experimental findings from patent US9987276B2 (Celgene CAR LLC, priority 2008, dated 2018) are described below.

In one assay the target is BMX (Homo sapiens (Human), UniProt P51813). The assay is described as follows: Omnia assay for potency assessment against active forms of BMX kinase. It counts as biochemical. The note with it: [BMX]=2.5 nM, [ATP]=100 μM, [Y5-Sox]=7.5 μM; read-out: BMX Inhibition. The method, then: Briefly, 10× stocks of EGFR-WT (PV3872) from Invitrogen and EGFR-T790M/L858R (40350) from BPS Bioscience, San Diego, Calif., 1.13×ATP (AS001A) and appropriate Tyr-Sox conjugated peptide substrates (KCZ1001) were prepared in 1× kinase reaction buffer consisting of 20 mM Tris, pH 7.5, 5 mM MgCl2, 1 mM EGTA, 5 mM β-glycerophosphate, 5% glycerol (10× stock, KB002A) and 0.2 mM DTT (DS001A).
This example describes continuous-read kinase assays to measure inherent potency of compound against active forms of BMX enzymes as described in Example 251 above except that the modified BMX-optimized reagent conditions are:
[BMX]=2.5 nM, [ATP]=100 μM, [Y5-Sox]=7.5 μM (ATP KMapp=107 μM).

Assay [1] has as its target T1, BTK (Homo sapiens (Human), UniProt Q06187). The assay is described as follows: Washout experiment with Ramos cells. It counts as cell-based. The note with it: 100 nM compound for 1 hour, then washout. As for the experimental part:
Ramos cells were serum starved for one hour in RPMI media+1% glutamine at 37° C. After starvation, Ramos cells were treated with 100 nM compound diluted in serum free RPMI media for 1 hour. After compound treatment, the media was removed and cells were washed with compound-free media. Subsequently, Ramos cells were washed every 2 hours and resuspended in fresh compound-free media. Cells were collected at specified timepoints, treated with 1 ug anti-human IgM (Southern Biotech cat #2022-01) for 10 minutes on ice to induce BCR signaling and then washed in PBS. Ramos cells were then lysed in Cell Extraction Buffer (Invitrogen FNN0011) supplemented with Roche complete protease inhibitor tablets (Roche 11697498001) and phosphatase inhibitors (Roche 04 906 837 001) and 18 ug total protein lysate was loaded in each lane. Inhibition of BTK kinase activity was assayed by measuring its substrate (PLCγ2) phosphorylation by western blot with phospho-specific antibodies from Cell Signaling Technologies cat #3871. The results of this experiment with compounds I-2, I-4 and I-7 are depicted in FIGS. 1, 2 and 3.

The next assay concerns the target EGFR-WT (Homo sapiens (Human), UniProt P00533). In words: Omnia assay for potency assessment against EGFR (WT). The note with it: read-out: EGFR (wild type inhibition); EGFR wild type.
Another assay addresses EGFR-T790M/L858R (Homo sapiens (Human), UniProt P00533, L858R/T790M). In words: Omnia assay for potency assessment against EGFR (T790M/L858R). The note with it: read-out: EGFR (T790M/L858R); EGFR mutant T790M/L858R.
The target in assay [2] is T1, BTK. In words: Omnia assay for potency assessment against BTK. It is filed as biochemical. The note with it: [BTK]=5 nM, Omnia assay; read-out: BTK Inhibition (IC50). As for the experimental part: The modified BTK-optimized reagent conditions for the above protocol are:
[BTK]=5 nM, [ATP]=[…], [Y5-Sox]=[…] (ATP KMapp˜[…]).

The target of assay [3] is T1, BTK. The assay is described as follows: BTK Ramos cellular assay (PLCγ2 phosphorylation). It counts as cell-based. The note with it: Ramos cells, 1 hour compound, anti-IgM stimulation, p-PLCγ2; read-out: BTK Inhibition (IC50), BTK Ramos cellular inhibition.

T1 sequence (Q06187 whole entry): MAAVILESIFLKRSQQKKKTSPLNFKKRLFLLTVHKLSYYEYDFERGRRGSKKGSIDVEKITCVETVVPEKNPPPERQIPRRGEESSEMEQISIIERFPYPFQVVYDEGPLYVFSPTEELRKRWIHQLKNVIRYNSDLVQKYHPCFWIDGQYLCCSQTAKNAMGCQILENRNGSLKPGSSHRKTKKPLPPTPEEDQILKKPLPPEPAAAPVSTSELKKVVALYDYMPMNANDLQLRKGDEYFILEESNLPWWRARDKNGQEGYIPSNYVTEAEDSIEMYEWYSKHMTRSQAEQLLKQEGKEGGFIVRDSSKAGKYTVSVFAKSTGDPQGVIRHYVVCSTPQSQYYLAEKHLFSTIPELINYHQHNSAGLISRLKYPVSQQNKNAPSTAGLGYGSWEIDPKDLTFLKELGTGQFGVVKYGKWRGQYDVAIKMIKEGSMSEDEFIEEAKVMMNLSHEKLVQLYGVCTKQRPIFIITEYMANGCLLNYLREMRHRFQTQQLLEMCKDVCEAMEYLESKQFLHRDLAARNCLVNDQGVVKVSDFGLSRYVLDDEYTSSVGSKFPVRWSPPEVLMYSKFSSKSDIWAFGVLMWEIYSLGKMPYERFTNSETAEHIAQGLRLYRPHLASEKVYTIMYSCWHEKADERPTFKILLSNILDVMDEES
EGFR-WT, sequence (P00533 668-1210): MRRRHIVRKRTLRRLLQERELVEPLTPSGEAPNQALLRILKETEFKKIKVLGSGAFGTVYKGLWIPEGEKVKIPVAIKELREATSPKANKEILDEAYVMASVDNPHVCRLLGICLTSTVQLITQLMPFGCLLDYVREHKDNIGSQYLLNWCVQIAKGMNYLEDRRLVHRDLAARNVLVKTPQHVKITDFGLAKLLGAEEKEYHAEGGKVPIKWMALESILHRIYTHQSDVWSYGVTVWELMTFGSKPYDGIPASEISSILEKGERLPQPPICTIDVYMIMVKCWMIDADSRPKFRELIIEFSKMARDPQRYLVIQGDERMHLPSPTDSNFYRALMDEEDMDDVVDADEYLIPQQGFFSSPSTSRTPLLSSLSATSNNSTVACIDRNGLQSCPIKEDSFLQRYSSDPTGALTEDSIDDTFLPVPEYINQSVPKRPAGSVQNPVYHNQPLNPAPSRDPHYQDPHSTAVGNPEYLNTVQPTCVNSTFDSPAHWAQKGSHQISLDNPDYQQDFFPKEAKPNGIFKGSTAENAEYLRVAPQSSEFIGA
BMX, sequence (P51813 whole entry): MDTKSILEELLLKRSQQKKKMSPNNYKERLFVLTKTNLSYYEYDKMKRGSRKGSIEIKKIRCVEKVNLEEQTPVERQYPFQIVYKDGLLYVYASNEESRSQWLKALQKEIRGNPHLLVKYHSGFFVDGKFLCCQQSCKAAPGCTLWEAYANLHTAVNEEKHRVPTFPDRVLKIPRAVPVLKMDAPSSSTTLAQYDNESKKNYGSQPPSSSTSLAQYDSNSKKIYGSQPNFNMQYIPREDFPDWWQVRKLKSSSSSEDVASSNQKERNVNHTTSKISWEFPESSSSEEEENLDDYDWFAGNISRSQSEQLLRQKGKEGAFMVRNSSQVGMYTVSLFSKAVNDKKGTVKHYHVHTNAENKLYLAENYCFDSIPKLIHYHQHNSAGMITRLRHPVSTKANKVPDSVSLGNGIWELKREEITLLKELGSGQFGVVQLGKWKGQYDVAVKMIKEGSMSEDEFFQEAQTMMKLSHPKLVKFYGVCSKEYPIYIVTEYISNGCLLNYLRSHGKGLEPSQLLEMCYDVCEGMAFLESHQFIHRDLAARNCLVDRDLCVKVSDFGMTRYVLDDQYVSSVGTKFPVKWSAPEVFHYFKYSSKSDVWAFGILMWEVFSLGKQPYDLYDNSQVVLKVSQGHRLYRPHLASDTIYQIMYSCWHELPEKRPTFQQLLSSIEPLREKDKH
EGFR-T790M/L858R, sequence (P00533 25-1210 T790M/L858R): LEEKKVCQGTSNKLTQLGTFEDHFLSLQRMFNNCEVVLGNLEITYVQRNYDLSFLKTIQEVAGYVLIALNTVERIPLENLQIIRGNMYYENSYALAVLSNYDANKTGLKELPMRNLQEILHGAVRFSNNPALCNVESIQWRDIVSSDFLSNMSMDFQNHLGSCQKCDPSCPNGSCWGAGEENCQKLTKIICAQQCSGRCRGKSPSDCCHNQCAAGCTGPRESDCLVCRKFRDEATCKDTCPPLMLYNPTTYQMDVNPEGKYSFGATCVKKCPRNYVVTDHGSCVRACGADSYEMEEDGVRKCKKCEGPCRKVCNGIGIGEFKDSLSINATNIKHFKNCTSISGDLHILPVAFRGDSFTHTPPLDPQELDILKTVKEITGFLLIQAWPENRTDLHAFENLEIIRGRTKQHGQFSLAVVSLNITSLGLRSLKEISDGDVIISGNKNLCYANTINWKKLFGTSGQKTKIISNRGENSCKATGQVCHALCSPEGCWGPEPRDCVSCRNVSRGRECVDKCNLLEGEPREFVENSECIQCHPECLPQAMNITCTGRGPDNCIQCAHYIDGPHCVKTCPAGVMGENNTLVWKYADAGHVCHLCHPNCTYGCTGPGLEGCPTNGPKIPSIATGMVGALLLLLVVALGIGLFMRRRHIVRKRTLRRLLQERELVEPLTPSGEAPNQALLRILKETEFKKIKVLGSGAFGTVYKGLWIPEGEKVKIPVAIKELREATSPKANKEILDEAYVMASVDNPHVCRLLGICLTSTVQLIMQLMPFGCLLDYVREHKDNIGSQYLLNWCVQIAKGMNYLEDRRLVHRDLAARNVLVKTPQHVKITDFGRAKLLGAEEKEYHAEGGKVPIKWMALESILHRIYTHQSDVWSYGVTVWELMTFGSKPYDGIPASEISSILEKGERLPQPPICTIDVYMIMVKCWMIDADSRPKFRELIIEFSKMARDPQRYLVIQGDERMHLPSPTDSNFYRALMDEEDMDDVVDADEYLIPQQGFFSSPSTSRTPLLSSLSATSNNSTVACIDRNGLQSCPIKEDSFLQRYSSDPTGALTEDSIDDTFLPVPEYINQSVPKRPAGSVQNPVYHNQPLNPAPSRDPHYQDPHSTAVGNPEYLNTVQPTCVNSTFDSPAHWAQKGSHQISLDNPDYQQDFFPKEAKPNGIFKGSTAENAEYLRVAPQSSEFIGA

Consider `C=CC(=O)Nc1cccc(Nc2nc(Nc3ccccc3)ncc2C)c1` [Compound I-7, N-(3-(5-methyl-2-(phenylamino)pyrimidin-4-ylamino)phenyl) acrylamide], for which the IC50 at BMX, on EGFR-WT, at EGFR-T790M/L858R, on BTK [2] and on BTK [3] was less than 10 nM throughout. In addition, the “BTK Inhibition Type” value on BTK [1] was “irreversible”.

Turning to `Cc1cccc(Nc2nc(Nc3cccc(NC(=O)/C=C/CN(C)C)c3)ncc2F)c1` [Compound I-4, (E)-4-(dimethylamino)-N-(3-(5-fluoro-4-(m-tolylamino)pyrimidin-2-ylamino)phenyl)but-2-enamide], the IC50 was less than 10 nM on BMX; less than 10 nM on EGFR-WT; less than 10 nM at EGFR-T790M/L858R; less than 10 nM on BTK [2]; 10 to 100 nM at BTK [3]. Also, the “BTK Inhibition Type” value at BTK [1] was “irreversible”.
